Read-outs that look alike come from different tables or passages of the source.
Experiments:
Sprague-Dawley rats = test: Epileptiform activity induced by i.v. kainic acid in urethane-anesthetized rats; format: in vivo, rat; conditions: intravenous, cumulative dose 40-60 mg/kg
Protocol: Body temperature was monitored using a rectal temperature probe and maintained at 35-37° C. with a heating pad; heart rate (EKG) was continuously monitored. The jugular vein was cannulated on one side for intravenous drug administration. Rats were placed in a Kopf stereotaxic device (with the top of the skull level), and a bipolar stainless-steel microelectrode insulated to 0.5 mm of the tip was inserted to a depth of 0.5-1.2 mm from the cortical surface to record electroencephalographic (EEG) activity in the fronto-parietal cortex. In some experiments, a 2M NaCl-containing pipette was lowered to a depth of 2.5-3.0 mm to record hippocampal EEG. Data were stored on VHS videotape and analyzed off-line.
Following the surgical preparation and electrode placement, animals were allowed to recover for 30 minutes before the experiments were initiated with an injection of kainic acid (10-12 mg/kg i.v.). […] Experiments were terminated with the intravenous administration of urethane. Animal care was in accordance with NIH guidelines and approved by the University of Washington Animal Care Committee.

rats [1] = test: Fear potentiated startle (FPS) test in rats; format: in vivo, rat; conditions: i.v.; furosemide 100 mg/kg, bumetanide 70 mg/kg
Protocol: FPS is a commonly used assessment of therapeutic value of anxiolytic compounds in the rat. Rats received a 30 min period of habituation to the FPS apparatus. 24-hr later baseline startle amplitudes were collected. The rats will be divided into two matched groups based on baseline startle amplitudes. Following baseline startle amplitude collection 20 light/shock pairings were delivered on 2 sessions over 2 consecutive days (i.e., 10 light/shock pairings per day). On the final day, one group of rats received an injection (i.v.) of a bumetanide analog and the other group received vehicle only. Immediately following injections, startle amplitudes were assessed during startle alone trials and startle plus fear (light followed by startle) trials. Fear potentiated startle (light+startle amplitudes minus startle alone amplitudes) was compared between the treatment groups.
Animals were trained and tested in four identical stabilimeter devices (Med-Associates). Briefly, each rat was placed in a small Plexiglas cylinder. The floor of each stabilimeter consists of four 6-mm-diameter stainless steel bars spaced 18 mm apart through which shock can be delivered. Cylinder movements result in displacement of an accelerometer where the resultant voltage is proportional to the velocity of the cage displacement. Startle amplitude is defined as the maximum accelerometer voltage that occurs during the first 0.25 sec after the startle stimulus is delivered. The analog output of the accelerometer is amplified, digitized on a scale of 0-4096 units and stored on a microcomputer. Each stabilimeter is enclosed in a ventilated, light-, and sound-attenuating box. All sound level measurements were made with a Precision Sound Level Meter. The noise of a ventilating fan attached to a sidewall of each wooden box produces an overall background noise level of 64 dB. The startle stimulus is a 50 ms burst of white noise (5 ms rise-decay time) generated by a white noise generator. The visual conditioned stimulus used was illumination of a light bulb adjacent to the white noise source. The unconditioned stimulus was a 0.6 mA foot shock with duration of 0.5 sec, generated by four constant-current shockers located outside the chamber. The presentation and sequencing of all stimuli were under the control of the microcomputer.
FPS procedures consisted of 5 days of testing; during days 1 and 2 baseline startle responses were collected, days 3 and 4 light/shock pairings were delivered, day 5-testing for fear potentiated startle was conducted.
Matching. On the first two days all rats were placed in the Plexiglas cylinders and 3 min later presented with 30 startle stimuli at a 30 sec interstimulus interval. An intensity of 105 dB was used. […]

human subjects = conditions: cited from earlier work
primate = test: Acute primate seizure models; conditions: in vivo
From the text: FIG. 13 depicts epileptiform spikes and bursts generated using software for the automatic quantification epileptiform activity. FIG. 13A depicts after-discharge activity that was elicited by 4 seconds of electrical stimulation to primate sensory cortex. The software developed by Haglund and Hochman (2007) finds the envelope around a burst of spikes and calculates the duration of the burst, the number of spikes within the burst, and the average spike amplitude of all spikes comprising the burst.
FIG. 13B depicts a typical spike generated by an acute bicuculline focus in primate motor cortex. The bicuculline model generates epileptiform activity that is similar to spontaneous interictal spiking in human subjects. Analysis of the data by the software identifies the time of occurrence of each spike and its peak-to-peak amplitude. This software can automatically process entire data sets consisting of hours of recorded data from multiple traces and generate an output of the data. Statistical analysis of data sets from multiple experiments can then be used to analyze the effects of various treatments (e.g., compounds that suppress epliptiform activity). See Haglund and Hochman (2007) “Imaging of Intrinsic Optical Signals in Primate Cortex during Epileptiform Activity.” Epilepsia 48(Suppl. 4): 65-74; See also Haglund and Hochman (Feb. 23, 2005) J. Neurophysiol. 94: 907-918.

rats [2] = test: Contextual fear conditioning in rats; format: in vivo, rat; conditions: I.V.; furosemide 100 mg/kg, bumetanide 50 mg/kg
Protocol: Contextual fear conditioning involves pairing an aversive event, in this case moderate foot shock, with a distinctive environment. The strength of the fear memory is assessed using freezing, a species-typical defensive reaction in rats, marked by complete immobility, except for breathing. […] However, if they are allowed to explore the distinctive environment sometime before the immediate shock, they show intense anxiety and fear when placed back into the same environment. By procedurally dividing contextual fear conditioning into two phases, the effects of treatments on memory for the context (specifically a hippocampus based process) from learning the association between context and shock or experiencing the aversiveness of the shock (which depend upon emotional response circuitry including amygdala) were separately studied. […] The experiment employed 24 rats. […] Each rat was again placed into the same environment for 8 min during which time freezing was measured, as an index of Pavlovian conditioned fear. […] Measurement of freezing was accomplished through an overhead video camera connected to the microcomputer and was automatically scored using a specialty piece of software, FreezeFrame (OER Inc., Reston, Va.) Total freezing time was analyzed in a one-way analysis of variance (ANOVA) test, with drug dose as the […] factor.

Protocol for rat hippocampal slices: Sprague-Dawley rats (males and females; 25-35 days old) were decapitated, the top of the skull was rapidly removed, and the brain chilled with ice-cold oxygenated slicing medium. […] A hemisphere of brain containing hippocampus was blocked and glued (cyanoacrylic adhesive) to the stage of a Vibroslicer (Frederick Haer, Brunsick, Me.). […] In the recording chamber, the slices were perfused with oxygenated recording medium at 34-35° C. […] In most slice experiments, simultaneous extracellular field electrode recordings were obtained from CA1 and CA3 areas. A bipolar tungsten stimulating electrode was placed on the Schaffer collaterals to evoke synaptically-driven field responses in CA1. Stimuli consisted of 100-300 μsec duration pulses at an intensity of four times the population-spike threshold. After discharges were evoked by a 2 second train of such stimuli delivered at 60 Hz. […] The tissue was allowed to recover for 10 minutes between stimulation trials. In each experiment, the initial response of CA1 to synaptic input was first tested by recording the field potential evoked by a single stimulus pulse. […] Rat hippocampal slices, prepared as described above, were perfused with a high-K^+ solution until extended periods of spontaneous interictal-like bursting were recorded simultaneously in CA3 (top traces) and CA1 (lower traces) pyramidal cell regions (FIGS. 18A and 18B). […] Hippocampal slices were prepared from Sprague-Dawley adult rats as described previously. Transverse hippocampal slices 100 μm thick were cut with a vibrating cutter. Slices typically contained the entire hippocampus and subiculum. After cutting, slices were stored in an oxygenated holding chamber at room temperature for at least one hour before recording. […] In some experiments, normal or low-chloride medium was used containing bicuculline.

NS(=O)(=O)c1cc(C(=O)O)c(NCc2ccco2)cc1Cl [Furosemide]
Kainic acid-evoked seizure activity (electrical status epilepticus) (Sprague-Dawley rats): blocked seizure activity
Latency to block of seizure activity (Sprague-Dawley rats): 30 to 45 min
Difference score on the test day vs vehicle alone (rats [1]): statistically significantly lower difference score
Difference score one week after treatment vs vehicle alone (rats [1]): higher difference score
Average reduction in the duration of stimulation-evoked after-discharge activity (human subjects; 8 patients): 85%
Average reduction in spiking frequency (human subjects; five patients, 20 mg intravenous bolus): approximately 60%
Mean interspike interval following furosemide treatment (human subjects; five patients, 9.6 s prior to furosemide): 21.9 s
Patients with complete blockade of after-discharge activity (human subjects; of 8 patients): 4 patients
Patients with reduction by more than 50% of duration and amplitude of after-discharge activity (human subjects; of 8 patients): 4 patients
Suppression of epileptiform activity (primate): suppresses epileptiform activity
Freezing vs vehicle alone (rats [2]): significantly less freezing
Minimum concentration required to block both the after discharges and optical changes (rat hippocampal slices): 1.25 mM
Latency to block of bursting (rat hippocampal slices; 0-Ca2+ experiments, 5 mM furosemide): 15 to 20 min
Stimulation-evoked after discharge activity and optical changes (rat hippocampal slices; 2.5 mM furosemide, 20 minutes of perfusion): blocked
Spontaneous bursts in high-K+ (10 mM) medium (rat hippocampal slices; 2.5 mM furosemide, after 45 minutes of perfusion): blocked in a reversible manner
Latency to block of bursting (rat hippocampal slices; all other protocols, 2.5 mM furosemide): 20 to 60 min
Anticonvulsant resistant bursts after 3 hours of 0-Mg medium (rat hippocampal slices; one hour after the addition of furosemide): blocked

Reference: patent publication US9682928B2 (NeuroPro Therapeutics, Inc., priority 2009, dated 2017)
